{"source": "patent US10342777B2", "about": "“Caffeoylquinic acid-rich extract and preparation as well as use thereof” (Macau University of Science and Technology, priority 2015, dated 2019)", "key": {"[1]": {"tested_on": "Lactate dehydrogenase (LDH)", "assay": "Serum LDH activity 24 h after I/R (commercial kit)", "type": "in vivo, rat", "conditions": "5 mg/kg, P<0.01", "description": "(§1) An ischemia reperfusion injury was produced in rat heart based on Buerke's description with our modifications (Buerke et al., Proc Natl Acad Sci USA, 1995, 92:8031-8035). Sixty rats were randomly divided into six groups (n=10 per group): (I) Sham group (given saline vehicle without I/R); (II) I/R group with saline alone; (Ill) I/R group with 10 mg/kg of the caffeoylquinic acid-rich extract of example 1; (IV) I/R group with 20 mg/kg of the caffeoylquinic acid-rich extract of example 1; (V) I/R group with 40 mg/kg of the caffeoylquinic acid-rich extract of example 1; […] The vehicle or drugs were administered 1 min before reperfusion via single bolus tail vein injection. Rats were anesthetized with pentobarbital sodium (70 mg/kg body weight) by an i.p. injection of a mixture of 20% Dorminal (1 ml contains 200 mg pentobarbital sodium, Alfasan) and sterile saline at a ratio of 1:3 (VN). Using a PowerLab (ADInstruments Pty Ltd., Castle Hill, Australia), mean aortic pressure (MAP) was recorded from the Millar catheter. Electrocardiogram (ECG) in lead II was also recorded through the needle electrodes attached to the limbs. The heart rate and ST-segment elevation were calculated off-line. The chest was opened at the left fourth intercostal space. […] Activities of LDH and CK-MB were determined by using commercial assay kits according to manufacturer's instructions. […]"}, "IL-6": {"tested_on": "IL-6", "assay": "Cardiac tissue IL-6 level by ELISA 24 h after I/R", "type": "in vivo, rat", "conditions": "5 mg/kg", "description": "(§2) An ischemia reperfusion injury was produced in rat heart based on Buerke's description with our modifications (Buerke et al., Proc Natl Acad Sci USA, 1995, 92:8031-8035). Sixty rats were randomly divided into six groups (n=10 per group): (I) Sham group (given saline vehicle without I/R); (II) I/R group with saline alone; (Ill) I/R group with 10 mg/kg of the caffeoylquinic acid-rich extract of example 1; (IV) I/R group with 20 mg/kg of the caffeoylquinic acid-rich extract of example 1; (V) I/R group with 40 mg/kg of the caffeoylquinic acid-rich extract of example 1; […] The vehicle or drugs were administered 1 min before reperfusion via single bolus tail vein injection. […] Using a PowerLab (ADInstruments Pty Ltd., Castle Hill, Australia), mean aortic pressure (MAP) was recorded from the Millar catheter. Electrocardiogram (ECG) in lead II was also recorded through the needle electrodes attached to the limbs. The heart rate and ST-segment elevation were calculated off-line. […] Levels of TNF-α and IL-6 were measured using ELISA kits for TNF-α (RayBiotech, Inc., Norcross Ga.) and IL-6 (R & D System). […] The contents of total protein in the supernatants were determined by using a Bio-Rad kit (Bio-Rad Laboratories, Hercules, Calif., USA). […] To determine the effect of a caffeoylquinic acid-rich extract on pro-inflammatory cytokines, cardiac tissue levels of TNF-α and IL-6 after I/R were evaluated."}, "[2]": {"tested_on": "myocardial I/R injury in rat heart", "assay": "Myocardial infarct size by TTC staining after ischemia/reperfusion", "type": "in vivo", "conditions": "5 mg/kg i.v. tail vein 1 min before reperfusion; positive control; vehicle 15.2±1.4%", "description": "(§3) An ischemia reperfusion injury was produced in rat heart based on Buerke's description with our modifications (Buerke et al., Proc Natl Acad Sci USA, 1995, 92:8031-8035). Sixty rats were randomly divided into six groups (n=10 per group): (I) Sham group (given saline vehicle without I/R); (II) I/R group with saline alone; (Ill) I/R group with 10 mg/kg of the caffeoylquinic acid-rich extract of example 1; (IV) I/R group with 20 mg/kg of the caffeoylquinic acid-rich extract of example 1; (V) I/R group with 40 mg/kg of the caffeoylquinic acid-rich extract of example 1; […] The vehicle or drugs were administered 1 min before reperfusion via single bolus tail vein injection. […] Using a PowerLab (ADInstruments Pty Ltd., Castle Hill, Australia), mean aortic pressure (MAP) was recorded from the Millar catheter. Electrocardiogram (ECG) in lead II was also recorded through the needle electrodes attached to the limbs. The heart rate and ST-segment elevation were calculated off-line. […] The images of the slice were captured by a LEICA digital camera 480 and infarct area in each slice was measured by computed planimetry with an image analyzing program Image J1.26 (Wayne Rasband, National Institutes of Health, USA). Then the infarct area of each slice was determined by manual delineation of TTC-negative pale area of the image. […]"}, "JNK": {"tested_on": "JNK", "assay": "Western blot of phospho-JNK in left ventricular tissue after I/R", "type": "in vivo, rat", "conditions": "5 mg/kg before reperfusion"}, "[3]": {"tested_on": "myocardial I/R injury in rat heart", "assay": "ECG (lead II) ST-segment depression and heart rate 24 h after I/R", "type": "in vivo", "conditions": "5 mg/kg; 24 h reperfusion", "description": "as §3, with “Electrocardiogram (ECG) in lead II was recorded through” for “The images of”, “needle electrodes attached to the limbs continuously for 15 min” for “slice were captured by a LEICA digital camera 480 and infarct area in each slice was measured by computed planimetry”, “electrocardiograph (ASB240U, […], China). The heart rate and ST-segment depression were calculated off-line. […] The amplitude” for “image analyzing program Image J1.26 (Wayne Rasband, National Institutes”, “ST-segment and heart rate were recorded and used as” for “Health, USA). Then”, “index” for “infarct area”, “ischemic electrocardiograph changes.” for “each slice was determined by manual delineation of TTC-negative pale area of the image.”"}, "[4]": {"tested_on": "Creatine kinase-MB (CK-MB)", "assay": "Serum CK-MB activity 24 h after I/R (commercial kit)", "type": "in vivo, rat", "conditions": "5 mg/kg, P<0.01", "description": "as §1"}, "TNF-α": {"tested_on": "TNF-α", "assay": "Cardiac tissue TNF-α level by ELISA 24 h after I/R", "type": "in vivo, rat", "conditions": "5 mg/kg", "description": "as §2"}}}
{"smiles": "O=C(/C=C/c1ccc(O)c(O)c1)OCCc1ccccc1", "note": "[CAPE, 2-phenylethyl (2E)-3-(3,4-dihydroxyphenyl)acrylate]", "values": [{"measurement": "serum LDH", "setting": "[1]", "result": "287±18.8", "unit": "U/L"}, {"measurement": "cardiac tissue level of IL-6", "setting": "IL-6", "result": "markedly decreased"}, {"measurement": "myocardial infarct size", "setting": "[2]", "result": "7.9±0.9", "unit": "%"}, {"measurement": "JNK phosphorylation", "setting": "JNK", "result": "markedly reduced"}, {"measurement": "I/R-induced ST-segment depression", "setting": "[3]", "result": "significant protective effects"}, {"measurement": "heart rate decrease after I/R", "setting": "[3]", "result": "slight effect without significant difference"}, {"measurement": "serum CK-MB", "setting": "[4]", "result": "913±40.2", "unit": "U/L"}, {"measurement": "cardiac tissue level of TNF-α", "setting": "TNF-α", "result": "markedly decreased"}]}
